Source: the NIST ThermoML archive (doi:10.1021/je060271a)
Values joined by “and” are separate entries in the source; they are usually repeats but may differ in a detail not shown here. Equal values may be shown once.

Conditions: 343.16 K, Liquid, Vibrating tube method

CCCCCC(=O)OCC(COC(=O)CCCCC)(COC(=O)CCCCC)COC(=O)CCCCC [pentaerythritol tetrahexanoate]
Conditions	mass density
251.1 kPa	957.3 kg/m3 and 957.2 kg/m3
254 kPa	957.3 kg/m3 and 957.1 kg/m3
254.2 kPa	957.2 kg/m3
254.4 kPa	957.3 kg/m3
254.5 kPa	957.3 kg/m3
255.8 kPa	957.3 kg/m3
255.9 kPa	957.3 kg/m3
256.3 kPa	957.3 kg/m3
258.5 kPa	957.2 kg/m3
258.7 kPa	957.2 kg/m3
258.9 kPa	957.3 kg/m3
259.1 kPa	957.2 kg/m3
260.1 kPa	957.2 kg/m3 and 957.3 kg/m3
263.7 kPa	957.2 kg/m3
264.3 kPa	957.3 kg/m3
264.6 kPa	957.3 kg/m3
264.8 kPa	957.2 kg/m3
265 kPa	957.2 kg/m3
265.1 kPa	957.3 kg/m3
265.5 kPa	957.2 kg/m3
265.7 kPa	957.3 kg/m3
266 kPa	957.2 kg/m3
266.2 kPa	957.3 kg/m3 and 957.2 kg/m3
266.5 kPa	957.3 kg/m3
266.7 kPa	957.3 kg/m3
267 kPa	957.3 kg/m3
267.2 kPa	957.4 kg/m3
267.6 kPa	957.2 kg/m3
267.7 kPa	957.3 kg/m3 and 957.4 kg/m3
268.3 kPa	957.4 kg/m3
268.4 kPa	957.2 kg/m3 and 957.3 kg/m3
268.6 kPa	957.3 kg/m3
269.1 kPa	957.2 kg/m3 and 957.3 kg/m3
269.5 kPa	957.3 kg/m3
269.8 kPa	957.2 kg/m3
270.2 kPa	957.3 kg/m3
270.3 kPa	957.3 kg/m3
270.5 kPa	957.3 kg/m3
271.4 kPa	957.4 kg/m3
271.6 kPa	957.2 kg/m3 and 957.3 kg/m3
271.7 kPa	957.4 kg/m3
272.1 kPa	957.2 kg/m3 and 957.3 kg/m3
272.3 kPa	957.3 kg/m3
272.6 kPa	957.3 kg/m3
273 kPa	957.3 kg/m3
273.3 kPa	957.3 kg/m3
274.7 kPa	957.1 kg/m3
274.9 kPa	957.4 kg/m3
275 kPa	957.2 kg/m3
276.9 kPa	957.4 kg/m3
279.9 kPa	957.2 kg/m3
280.2 kPa	957.4 kg/m3
280.4 kPa	957.3 kg/m3 and 957.4 kg/m3
280.6 kPa	957.3 kg/m3
280.9 kPa	957.2 kg/m3 and 957.3 kg/m3
281.3 kPa	957.3 kg/m3
281.5 kPa	957.3 kg/m3
281.8 kPa	957.2 kg/m3 and 957.4 kg/m3
282.3 kPa	957.4 kg/m3
282.7 kPa	957.4 kg/m3
282.9 kPa	957.3 kg/m3
283 kPa	957.3 kg/m3
283.4 kPa	957.3 kg/m3
283.9 kPa	957.2 kg/m3
284.2 kPa	957.3 kg/m3
284.4 kPa	957.3 kg/m3
284.7 kPa	957.3 kg/m3
284.8 kPa	957.3 kg/m3
285.4 kPa	957.3 kg/m3
290.3 kPa	957.4 kg/m3
290.5 kPa	957.3 kg/m3 and 957.4 kg/m3
290.7 kPa	957.4 kg/m3
293.8 kPa	957.1 kg/m3
294 kPa	957.4 kg/m3
294.3 kPa	957.2 kg/m3
294.7 kPa	957.2 kg/m3
294.8 kPa	957.2 kg/m3
295.2 kPa	957.2 kg/m3
295.5 kPa	957.3 kg/m3
295.9 kPa	957.3 kg/m3
296.4 kPa	957.2 kg/m3
299.9 kPa	957.4 kg/m3 and 957.3 kg/m3
300 kPa	957.4 kg/m3
300.2 kPa	957.4 kg/m3
300.6 kPa	957.2 kg/m3
300.7 kPa	957.3 kg/m3
300.9 kPa	957.2 kg/m3
301.1 kPa	957.2 kg/m3
301.3 kPa	957.3 kg/m3
301.6 kPa	957.4 kg/m3 and 957.3 kg/m3
302.1 kPa	957.3 kg/m3 and 957.4 kg/m3
302.5 kPa	957.2 kg/m3
302.7 kPa	957.3 kg/m3
303 kPa	957.3 kg/m3
303.2 kPa	957.2 kg/m3
304.2 kPa	957.3 kg/m3
304.6 kPa	957.2 kg/m3
304.7 kPa	957.4 kg/m3
305.1 kPa	957.2 kg/m3
305.4 kPa	957.4 kg/m3
307.2 kPa	957.3 kg/m3
310.1 kPa	957.3 kg/m3
310.3 kPa	957.4 kg/m3
310.5 kPa	957.3 kg/m3
310.6 kPa	957.4 kg/m3
312.2 kPa	957.3 kg/m3
312.6 kPa	957.2 kg/m3
313.1 kPa	957.4 kg/m3
313.6 kPa	957.4 kg/m3
313.9 kPa	957.4 kg/m3
314.3 kPa	957.4 kg/m3
314.5 kPa	957.4 kg/m3
314.6 kPa	957.2 kg/m3
314.8 kPa	957.4 kg/m3
315.3 kPa	957.3 kg/m3
315.5 kPa	957.4 kg/m3
317.1 kPa	957.4 kg/m3
317.4 kPa	957.3 kg/m3
318.1 kPa	957.3 kg/m3
321.6 kPa	957.4 kg/m3
322.1 kPa	957.4 kg/m3
325.6 kPa	957.3 kg/m3
328.2 kPa	957.3 kg/m3
328.7 kPa	957.4 kg/m3
328.9 kPa	957.3 kg/m3
329.2 kPa	957.4 kg/m3
329.6 kPa	957.3 kg/m3
329.9 kPa	957.2 kg/m3
330.1 kPa	957.4 kg/m3
330.6 kPa	957.3 kg/m3
330.8 kPa	957.3 kg/m3
331.3 kPa	957.4 kg/m3
331.5 kPa	957.4 kg/m3 and 957.3 kg/m3
332 kPa	957.3 kg/m3
332.4 kPa	957.3 kg/m3
332.5 kPa	957.3 kg/m3
332.9 kPa	957.3 kg/m3
337.1 kPa	957.2 kg/m3
337.6 kPa	957.4 kg/m3
337.8 kPa	957.3 kg/m3
344.9 kPa	957.4 kg/m3
345.2 kPa	957.4 kg/m3 and 957.3 kg/m3
345.9 kPa	957.4 kg/m3
346.4 kPa	957.5 kg/m3
353.7 kPa	957.3 kg/m3 and 957.4 kg/m3
354.4 kPa	957.4 kg/m3 and 957.3 kg/m3
355.3 kPa	957.3 kg/m3
355.8 kPa	957.3 kg/m3
356.3 kPa	957.3 kg/m3
356.7 kPa	957.4 kg/m3
357 kPa	957.4 kg/m3
357.2 kPa	957.4 kg/m3
357.5 kPa	957.4 kg/m3
357.9 kPa	957.4 kg/m3
358.6 kPa	957.4 kg/m3
359.5 kPa	957.4 kg/m3
360.3 kPa	957.4 kg/m3
360.5 kPa	957.3 kg/m3
360.7 kPa	957.3 kg/m3
361.4 kPa	957.3 kg/m3
361.6 kPa	957.4 kg/m3
361.9 kPa	957.3 kg/m3
362.3 kPa	957.5 kg/m3
362.6 kPa	957.5 kg/m3
362.9 kPa	957.4 kg/m3
365.9 kPa	957.3 kg/m3 and 957.4 kg/m3
366.4 kPa	957.3 kg/m3
366.8 kPa	957.4 kg/m3
367.3 kPa	957.3 kg/m3
367.6 kPa	957.3 kg/m3
368 kPa	957.5 kg/m3
368.1 kPa	957.3 kg/m3
368.5 kPa	957.4 kg/m3
370.4 kPa	957.4 kg/m3
370.8 kPa	957.3 kg/m3
371.3 kPa	957.5 kg/m3
371.6 kPa	957.4 kg/m3
372 kPa	957.4 kg/m3
372.3 kPa	957.4 kg/m3
379.4 kPa	957.5 kg/m3
379.8 kPa	957.4 kg/m3
380.3 kPa	957.4 kg/m3
405.3 kPa	957.4 kg/m3
406 kPa	957.4 kg/m3
406.2 kPa	957.3 kg/m3
406.4 kPa	957.4 kg/m3
406.9 kPa	957.4 kg/m3
410.7 kPa	957.3 kg/m3
411.1 kPa	957.4 kg/m3
411.8 kPa	957.4 kg/m3
412.5 kPa	957.5 kg/m3
415.9 kPa	957.4 kg/m3
416.3 kPa	957.4 kg/m3
416.6 kPa	957.3 kg/m3
417.3 kPa	957.2 kg/m3
417.7 kPa	957.3 kg/m3
421.8 kPa	957.4 kg/m3
422.4 kPa	957.5 kg/m3
422.9 kPa	957.5 kg/m3
423.1 kPa	957.4 kg/m3
495.2 kPa	957.5 kg/m3
498.6 kPa	957.4 kg/m3
501.8 kPa	957.5 kg/m3
506.1 kPa	957.5 kg/m3
509.6 kPa	957.5 kg/m3
513.1 kPa	957.4 kg/m3
517.4 kPa	957.5 kg/m3
521.2 kPa	957.5 kg/m3
541.9 kPa	957.6 kg/m3
598.9 kPa	957.5 kg/m3
1360.7 kPa	958.2 kg/m3
1373.7 kPa	958.2 kg/m3
1386.7 kPa	958 kg/m3
1402 kPa	958.1 kg/m3
1499.4 kPa	958.2 kg/m3
1527.2 kPa	958.3 kg/m3
1543.9 kPa	958.2 kg/m3
1635.2 kPa	958.4 kg/m3
1649.9 kPa	958.4 kg/m3
1664.3 kPa	958.4 kg/m3
1682.1 kPa	958.4 kg/m3
2922.7 kPa	959.2 kg/m3
2945.6 kPa	959.4 kg/m3
3846.3 kPa	960.1 kg/m3
3871.7 kPa	960 kg/m3
3901.2 kPa	960.1 kg/m3
3926.1 kPa	960 kg/m3
3956.3 kPa	960.1 kg/m3
3981.7 kPa	960.2 kg/m3
9203.5 kPa	964.1 kg/m3
9234 kPa	964.1 kg/m3
9270 kPa	964.2 kg/m3
9300.6 kPa	964.1 kg/m3
9331.6 kPa	964.1 kg/m3
9596.7 kPa	964.4 kg/m3
9628.1 kPa	964.4 kg/m3
9666.2 kPa	964.4 kg/m3
9698 kPa	964.4 kg/m3
9736.5 kPa	964.4 kg/m3
9768.5 kPa	964.5 kg/m3
9839 kPa	964.5 kg/m3
9871.9 kPa	964.6 kg/m3
9905.6 kPa	964.5 kg/m3
9938.9 kPa	964.7 kg/m3
9971.6 kPa	964.5 kg/m3
10011 kPa	964.7 kg/m3
10044 kPa	964.7 kg/m3
10084 kPa	964.7 kg/m3
10117 kPa	964.9 kg/m3
10151 kPa	964.7 kg/m3
10192 kPa	965 kg/m3
10225 kPa	964.9 kg/m3
10259 kPa	964.9 kg/m3
10294 kPa	964.9 kg/m3
10335 kPa	964.8 kg/m3
10369 kPa	965 kg/m3
10404 kPa	965 kg/m3
10446 kPa	965 kg/m3
10481 kPa	964.9 kg/m3
10516 kPa	964.9 kg/m3
10551 kPa	965 kg/m3
10593 kPa	965.2 kg/m3
10628 kPa	965.1 kg/m3
10670 kPa	965.1 kg/m3
10705 kPa	965.2 kg/m3
10741 kPa	965.2 kg/m3
10777 kPa	965.2 kg/m3
10820 kPa	965.2 kg/m3
10856 kPa	965.5 kg/m3
10893 kPa	965.4 kg/m3
10929 kPa	965.3 kg/m3
10972 kPa	965.3 kg/m3
12411 kPa	966.4 kg/m3
12434 kPa	966.4 kg/m3
12457 kPa	966.5 kg/m3
12484 kPa	966.4 kg/m3
12507 kPa	966.5 kg/m3
12530 kPa	966.5 kg/m3
12559 kPa	966.6 kg/m3
12577 kPa	966.5 kg/m3
12604 kPa	966.5 kg/m3
12626 kPa	966.5 kg/m3
12653 kPa	966.7 kg/m3
12675 kPa	966.5 kg/m3
12697 kPa	966.5 kg/m3
12722 kPa	966.6 kg/m3
12741 kPa	966.6 kg/m3
12760 kPa	966.7 kg/m3
12778 kPa	966.8 kg/m3
12793 kPa	966.6 kg/m3
